Measurements as given in article PMC9237807 (Pharmacology Research & Perspectives, 2022).

Columns and labels:
human β1‐adrenoceptor [1] = target: T1, human β1‐adrenoceptor (Homo sapiens, UniProt P08588); assay: [3H]-DHA association kinetics; type: binding; conditions: human β1AR, 37°C
human β1‐adrenoceptors = assay: Simulated association and dissociation of β-blockers from kinetic parameters; conditions: 30 × K d (β1), free ligand removed at 5 min
human β2‐adrenoceptors = assay: as above; conditions: 30 × K d (β1), free ligand removed at 5 min
human β1‐adrenoceptor [2] = target: T1, human β1‐adrenoceptor; assay: [3H]-DHA equilibrium competition binding
human β1‐adrenoceptor [3] = target: T1, human β1‐adrenoceptor; assay: [3H]-DHA competition kinetic binding assay; conditions: for koff / kon: human β1AR, CHO membranes, HBSS + 100 μM GTP, 37°C, ~3 nM [3H]-DHA
[4] = global fit, 3 radioligand concentrations

T1 sequence (P08588 whole entry): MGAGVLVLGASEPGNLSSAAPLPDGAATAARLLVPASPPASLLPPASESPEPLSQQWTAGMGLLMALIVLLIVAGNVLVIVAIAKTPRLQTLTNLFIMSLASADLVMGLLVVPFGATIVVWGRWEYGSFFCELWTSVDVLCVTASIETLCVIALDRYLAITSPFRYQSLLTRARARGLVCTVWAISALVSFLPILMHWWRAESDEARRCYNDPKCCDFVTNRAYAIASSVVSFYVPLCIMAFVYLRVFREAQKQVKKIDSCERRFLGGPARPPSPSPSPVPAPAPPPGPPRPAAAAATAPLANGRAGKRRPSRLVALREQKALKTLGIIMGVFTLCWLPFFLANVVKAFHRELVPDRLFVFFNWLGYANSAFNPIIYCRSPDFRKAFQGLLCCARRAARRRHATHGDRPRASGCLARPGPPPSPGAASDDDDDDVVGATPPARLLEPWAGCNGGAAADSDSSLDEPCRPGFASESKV

## 1‐[4,6‐propyl‐^3H]dihydroalprenolol [[^3H]‐DHA]
Human β1‐adrenoceptor [1]; [4]
  k off of radioligand: 0.00767 ± 0.0005 s⁻¹
  k on of radioligand: 5.28 ± 0.48 × 10^8 M^−1 min^−1
Human β1‐adrenoceptor [1]; read-out: K d of radioligand, from the kinetic fit
  Kd: 0.94 nM

## CC(C)NC[C@H](O)COc1ccc(CC(N)=O)cc1 [Atenolol, (S)‐(−) atenolol]
Human β1‐adrenoceptors; β1 and β2 adrenoceptors simulated
  time until receptor binding is fully reversed (simulation): ≤ 5 min

## CC(C)NCC(O)COc1ccc(COCCOC(C)C)cc1 (centres unmarked) [Bisoprolol, bisoprolol hemifumarate]
Human β1‐adrenoceptors
  time for full dissociation from the β1‐adrenoceptor (simulation): approximately 40 min
Human β2‐adrenoceptors
  time for full dissociation from the β2‐adrenoceptor (simulation): a matter of seconds

## CC(C)(Cc1c[nH]c2ccccc12)NCC(O)COc1ccccc1C#N (centres unmarked) [Bucindolol]
Human β1‐adrenoceptor [2]
  Ki: 0.269 nM
Human β1‐adrenoceptor [3]
  Kd: 0.1 ± 0.0004 nM
  koff: 0.00183 s⁻¹
  kon: 1.85e+07 M⁻¹ s⁻¹

## CC(C)(C)NCC(O)COc1cccc2c1CC(O)C(O)C2 (centres unmarked) [Nadolol, nadolol]
Human β1‐adrenoceptor [2]
  Ki: 33.9 nM
Human β1‐adrenoceptor [3]
  Kd: 22.4 nM
  koff: 0.00283 ± 0.0005 s⁻¹
  kon: 7.68 ± 0.79 × 10^6 M^−1 min^−1
